The results in this text go back to ChEMBL document CHEMBL6120984, “Novel potent SOS1 inhibitors containing a tricyclic quinazoline scaffold: A joint view of experiments and simulations” (Eur J Med Chem, 2025).

Data set [1] deals with MIA PaCa-2. The experiment in a line: Antiproliferative activity against human MIA PaCa-2 cells expressing KRAS G12C mutant assessed as inhibition of cell proliferation incubated for 14 days in 3-D culture condition. The class given is functional, cell-based. Particulars: MIA PaCa-2, 336 h.
Data set [2] deals with MIA PaCa-2. The experiment in a line: Antiproliferative activity against human MIA PaCa-2 cells expressing KRAS G12C mutant assessed as maximal inhibition of cell proliferation incubated for 14 days in 3-D culture condition relative to control. The class given is functional. Particulars: time 14 day.
Data set [3] is described as follows: Inhibition of ERK phosphorylation in human DLD-1 cells expressing KRAS G13D mutant incubated for 60 mins by HTRF assay. The class given is cell-based. Particulars: DLD-1, 1 h. In general terms: Time-resolved FRET reads energy transfer from a long-lived donor to a nearby acceptor.
Data set [4] addresses SOS1-KRAS (Homo sapiens, UniProt Q07889). The experiment in a line: Inhibition of 6His peptide-tagged recombinant human SOS1 (564 to 1049 residues)/N-terminal GST-tagged human recombinant KRAS G12C mutant protein-protein interaction incubated for 1 hrs by HTRF assay. The class given is protein-complex assay.
Data set [5] can be described thus: MRT in male CD-1 mouse at 10 mg/kg, po measured after 24 hrs by LC-MS/MS analysis. Particulars: in vivo. The class given is ADME, organism-based.
Data set [6] deals with Mus musculus. The experiment in a line: In vivo inhibition of ERK phosphorylation in female BALB/c nude mouse xenografted with human MIA PaCa-2 cells assessed as effect on phosphorylated ERK level in tumor at 50 mg/kg, po administered twice daily for 21 days. Particulars: time 21.0 day. The class given is functional, organism-based. (In general: Xenograft models place foreign cells or tissue in a host animal.)

The nature of data set [7]: Therapeutic index, ratio of IC50 for human MCF-10A cells to IC50 for human NCI-H358 cells expressing KRAS G12C mutant. The class given is toxicity. Particulars: read-out: Ratio IC50.
Data set [8] relates to DLD-1. The experiment in a line: Antiproliferative activity against human DLD-1 cells expressing KRAS G13D mutant assessed as inhibition of cell proliferation. The class given is functional, cell-based.
Data set [9] is described as follows: Therapeutic index, ratio of IC50 for human MCF-10A cells to IC50 for human NCI-H441 cells expressing KRAS G12V mutant. The class given is toxicity. Particulars: read-out: Ratio IC50.
Data set [10] in a line: Therapeutic index, ratio of IC50 for human MCF-10A cells to IC50 for human MIA PaCa-2 cells expressing KRAS G12C mutant. The class given is toxicity. Particulars: read-out: Ratio IC50.
A short description of data set [11]: Tmax in male CD-1 mouse at 10 mg/kg, po measured after 24 hrs by LC-MS/MS analysis. The class given is ADME, organism-based. Particulars: in vivo.
For data set [12], the system named is NCI-H520. The experiment in a line: Antiproliferative activity against human NCI-H520 cells expressing wildtype KRAS assessed as inhibition of cell proliferation. The class given is functional, cell-based.
The nature of data set [13]: AUC in male CD-1 mouse at 10 mg/kg, po measured after 24 hrs by LC-MS/MS analysis. Particulars: in vivo. The class given is ADME, organism-based.
A short description of data set [14]: Therapeutic index, ratio of IC50 for human MCF-10A cells to IC50 for human DLD-1 cells expressing KRAS G13D mutant. The class given is toxicity. Particulars: MCF-10A cells versus DLD-1 cells expressing KRAS G13D mutant, read-out: Ratio IC50.
Data set [15] is described as follows: Elimination rate constant in male CD-1 mouse at 10 mg/kg, po measured after 24 hrs by LC-MS/MS analysis. The class given is ADME, organism-based. Particulars: in vivo.
Data set [16] concerns NCI-H441. The experiment in a line: Antiproliferative activity against human NCI-H441 cells expressing KRAS G12V mutant assessed as inhibition of cell proliferation. The class given is functional, cell-based.
The nature of data set [17]: Toxicity in female BALB/c nude mouse xenografted with human MIA PaCa-2 cells assessed as body weight loss at 50 mg/kg, po administered twice daily for 21 days. The class given is organism-based. Particulars: in vivo, 504 h, time 21 day.
In data set [18] the test system is Mus musculus. The data set is described as follows: In vivo inhibition of AKT phosphorylation in female BALB/c nude mouse xenografted with human MIA PaCa-2 cells assessed as effect on phosphorylated AKT level in tumor at 50 mg/kg, po administered twice daily for 21 days. The class given is functional, organism-based. Particulars: time 21.0 day.
For data set [19], the system named is MIA PaCa-2. The experiment in a line: Antitumor activity against human MIA PaCa-2 cells xenografted in female BALB/c nude mouse assessed as tumor growth inhibition at 50 mg/kg, po administered twice daily for 21 days relative to control. The class given is functional. Particulars: MIA PaCa-2, 504 h, time 21 day, read-out: TGI.
The nature of data set [20]: Cmax in male CD-1 mouse at 10 mg/kg, po measured after 24 hrs by LC-MS/MS analysis. The class given is ADME, organism-based. Particulars: in vivo.
A short description of data set [21]: Half-life in male CD-1 mouse at 10 mg/kg, po measured after 24 hrs by LC-MS/MS analysis. The class given is ADME, organism-based. Particulars: in vivo.
Data set [22] in a line: Cytotoxicity against human MCF-10A cells assessed as inhibition of cell proliferation.
Data set [23] is described as follows: Toxicity in female BALB/c nude mouse xenografted with human MIA PaCa-2 cells assessed as animal death at 50 mg/kg, po administered twice daily for 21 days. The class given is organism-based. Particulars: in vivo, 504 h, time 21 day.
Data set [24] concerns NCI-H358. The experiment in a line: Antiproliferative activity against human NCI-H358 cells expressing KRAS G12C mutant assessed as inhibition of cell proliferation. The class given is functional, cell-based.

Calls of active or inactive are those of the source.

Chain of SOS1-KRAS (Q07889 whole entry, looked up, stated change not applied, the tested form may be a part): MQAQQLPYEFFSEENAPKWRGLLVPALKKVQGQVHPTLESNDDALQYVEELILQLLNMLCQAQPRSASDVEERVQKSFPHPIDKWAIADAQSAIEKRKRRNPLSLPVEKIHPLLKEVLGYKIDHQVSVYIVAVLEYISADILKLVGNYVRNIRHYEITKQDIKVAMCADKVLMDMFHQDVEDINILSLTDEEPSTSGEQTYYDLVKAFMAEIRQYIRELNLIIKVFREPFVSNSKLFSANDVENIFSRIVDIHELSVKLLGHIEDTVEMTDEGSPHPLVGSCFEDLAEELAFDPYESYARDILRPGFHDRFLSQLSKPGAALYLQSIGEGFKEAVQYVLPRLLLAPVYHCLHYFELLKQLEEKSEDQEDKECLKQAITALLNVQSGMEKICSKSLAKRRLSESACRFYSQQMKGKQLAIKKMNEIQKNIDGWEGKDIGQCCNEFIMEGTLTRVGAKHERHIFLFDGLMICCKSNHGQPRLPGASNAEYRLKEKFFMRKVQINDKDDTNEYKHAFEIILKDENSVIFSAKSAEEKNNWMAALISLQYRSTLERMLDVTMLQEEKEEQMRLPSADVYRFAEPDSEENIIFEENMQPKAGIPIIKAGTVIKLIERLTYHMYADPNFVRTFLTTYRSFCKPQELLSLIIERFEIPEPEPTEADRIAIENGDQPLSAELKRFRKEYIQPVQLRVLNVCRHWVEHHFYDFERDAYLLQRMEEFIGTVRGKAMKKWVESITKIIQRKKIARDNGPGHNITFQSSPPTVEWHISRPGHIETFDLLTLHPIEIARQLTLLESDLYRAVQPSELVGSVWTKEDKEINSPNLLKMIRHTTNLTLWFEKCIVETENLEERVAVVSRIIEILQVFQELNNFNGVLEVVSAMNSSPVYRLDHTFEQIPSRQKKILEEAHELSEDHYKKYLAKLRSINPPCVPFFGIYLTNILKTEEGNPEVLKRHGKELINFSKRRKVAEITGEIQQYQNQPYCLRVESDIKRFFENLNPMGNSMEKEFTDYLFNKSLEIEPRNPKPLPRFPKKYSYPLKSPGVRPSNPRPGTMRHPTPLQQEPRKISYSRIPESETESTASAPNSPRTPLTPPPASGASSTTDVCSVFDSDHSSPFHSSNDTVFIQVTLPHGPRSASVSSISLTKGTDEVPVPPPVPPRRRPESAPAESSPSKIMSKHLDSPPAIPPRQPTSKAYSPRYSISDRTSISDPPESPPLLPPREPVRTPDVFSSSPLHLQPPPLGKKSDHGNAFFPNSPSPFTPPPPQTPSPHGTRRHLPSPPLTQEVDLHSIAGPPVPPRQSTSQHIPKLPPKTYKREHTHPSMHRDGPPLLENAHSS

With `C=C(F)C(=O)N1CCN(c2nc(OC[C@@H]3CCCN3C)nc3c2CCN(c2cccc4cccc(Cl)c24)C3)C[C@@H]1CC#N` [ADAGRASIB], the half-maximal inhibitory concentration (IC50) (usually the concentration needed to halve the response being measured) in [1] was found to be 0.25 µM. Further, the Imax in data set [2] is 89%.
Regarding `Cc1nc(N[C@H](C)c2cccc(C(F)F)c2F)c2cc3c(cc2n1)OCCN3C(=O)C1CN(C)C1`, the IC50 in data set [1] came to 1.53 µM; in data set [3], 0.33 µM; in data set [4], 0.094 µM. Besides, in data set [2], the Imax amounted to 67%.
`Cc1nc(N[C@H](C)c2cccc(C(F)F)c2F)c2cc3c(cc2n1)OCCN3C(=O)C1CCN(C(C)C)CC1`: the IC50 in [1] was 0.11 µM; in [8], 0.07 µM; in [12], 2.88 µM; in data set [16], 0.12 µM; in [3], 0.018 µM; in [4] it was 0.0051 µM. Moreover, the values for the IC50 in [22] and in data set [24] were 44.6 µM and 0.07 µM, respectively. Moreover, in data set [5], the MRT (as a rule, a mean duration of stay, worked out from the concentration-time curve) is 2.83 h. In addition, in data set [2], the Imax came to 86%. The inhibition result in data set [6] and in data set [18] was “Active” in each case. Further, the selectivity ratio in data set [7], in data set [9], in data set [10] and in data set [14] was > 400 throughout. For the same compound, in data set [11], the Tmax (in general, the time at which the peak concentration occurs) was 1.08 h. For the same compound, in data set [13], the area under the curve (AUC) (usually the area under the concentration-time curve, a measure of exposure) at 24 h came to 2910 ng·h/mL. This compound gave a k el at 24 h in data set [15] of 0.000117 s⁻¹. In addition, the Activity result in data set [17] and in data set [23] was “Non-toxic” each time. In addition, the inhibition in vivo at 50 mg/kg in [19] was 70.5%. Moreover, in data set [20], the highest concentration (Cmax) (in general, the peak of the concentration-time curve) is 790 ng/mL. The half-life (usually the time needed for the level to fall by half in the phase considered) in [21] is 1.65 h.
`Cc1nc(N[C@H](C)c2cccc(C(F)F)c2F)c2cc3c(cc2n1)OCCN3C(=O)C1CCOCC1`: the IC50 in data set [1] amounted to 1.32 µM; in data set [3], 0.071 µM; in data set [4] it was 0.019 µM. In addition, in data set [2], the Imax turned out to be 76%.
For the compound `Cc1nc(N[C@H](C)c2cccc(C(F)F)c2F)c2cc3c(cc2n1)OCCN3C(=O)N1CCN(C)C[C@@H]1C`, the half-maximal inhibitory concentration (IC50) in [1] was > 10 µM; in data set [3] it was > 3 µM; in [4], 0.481 µM. The Imax in [2] worked out at 26%.
Consider `Cc1nc(N[C@H](C)c2cccc(C(F)F)c2F)c2cc3c(cc2n1)OCCN3C(=O)C1CCN(C)CC1`, for which the IC50 in data set [1] turned out to be 0.14 µM; in data set [3] it was 0.021 µM; in data set [4], 0.0056 µM. The MRT in data set [5] is 2.11 h. In data set [2], the Imax was 82%. In [11], the time of peak concentration (Tmax) stood at 0.5 h. In [13], the AUC at 24 h is 1920 ng·h/mL. Further, the k el at 24 h in [15] is 0.000111 s⁻¹. The Cmax in [20] is 650 ng/mL. Besides, in [21], the half-life was 1.72 h.
As to `Cc1nc(N[C@H](C)c2cccc(C(F)F)c2F)c2cc3c(cc2n1)OCCN3C(=O)N1CCN(C)CC1`, the half-maximal inhibitory concentration (IC50) was 0.66 µM in data set [1], 0.097 µM in [3] and 0.024 µM in [4]. The Imax in data set [2] is reported as 79%.
Consider `COc1cc2nc(C)nc(N[C@H](C)c3cc(N)cc(C(F)(F)F)c3)c2cc1O[C@H]1CCOC1`, for which the IC50 came to 0.15 µM in data set [1]; 0.1 µM in data set [8]; 2.63 µM in data set [12]; 0.16 µM in data set [16]; 0.03 µM in [3]; 0.12 µM in data set [24]. This compound came in with a mean residence time MRT in data set [5] of 2.44 h. Besides, the Imax in data set [2] worked out at 85%. The inhibition result in data set [6] and in data set [18] was “Active” throughout. Besides, the time of peak concentration (Tmax) in [11] worked out at 0.33 h. For the same compound, the AUC at 24 h in data set [13] turned out to be 2300 ng·h/mL. The compound further gave a k el at 24 h in data set [15] of 0.000119 s⁻¹. Further, in data set [19], the inhibition in vivo at 50 mg/kg is 56.3%. In addition, the Cmax in data set [20] turned out to be 870 ng/mL. The same compound gave a half-life in [21] of 1.67 h.
